Test results: paper PMC12261233, “Photoactivatable Cyclometalated Ir(III) Compound Penetrates the Blood-Brain Barrier in 3D Spheroidal and Advanced 3D Organoid Models of Inherently Resistant and Aggressive Brain Tumors” (ACS Pharmacology & Translational Science, 2025)

Assays:
hCMEC/D3 cells = assay: Iridium uptake in Transwell binary coculture BBB model (ICP-MS), hCMEC/D3; format: cell-based, human; conditions: 10 μM applied apically, 24 h
Protocol: (§1) The cellular uptake of anticancer compounds after penetrating the BBB is crucial for their efficacy in treating brain tumors. Understanding the extent of cellular uptake provides insights into the distribution and localization of these compounds within brain tumor cells, making such studies essential for assessing their potential efficacy. We utilized the static Transwell binary coculture BBB model, comprising an […] hCMEC/D3 cell line (representing the BBB) and a glioblastoma U87MG cell line. In this model, hCMEC/D3 cells were seeded on the apical side of the Transwell, while U87MG cells were seeded on the basolateral side. […] After a 24-h incubation, cells were harvested, counted, and the iridium uptake by both cell lines was analyzed using ICP-MS. […]
(§2) To confirm that the tested compounds can effectively target and accumulate in the desired U87MG glioblastoma cells, a coculture model was employed to monitor cellular uptake in both hCMEC/D3 cells and U87MG cells. […] The total iridium uptake by U87MG or hCMEC/D3 cells was analyzed 24 h after treatment. In brief, the apical and basolateral parts were separated, and each cellular model was harvested by trypsinization, pelleted by centrifugation, and counted. […] The final iridium content was determined through ICP-MS analysis. The experiments were replicated in triplicate, and the data are expressed as nanograms of iridium per one million cells.

U87MG cells = assay: Iridium uptake in Transwell binary coculture BBB model (ICP-MS), U87MG; format: cell-based, human; conditions: 24 h
Protocol: as §1, §2

## CCCCn1c2[n+](c3cc(C(=O)OC)ccc31)[Ir-3]13([Cl])([c]4ccccc4-2)[n+]2ccccc2-c2cc(-c4ccc(C)cc4)cc([n+]21)-c1cccc[n+]13.F[P-](F)(F)(F)(F)F [Ir4]
hCMEC/D3 cells
  iridium uptake by hCMEC/D3 cells: 47 ± 7 ng Ir/10^6 cells
U87MG cells; 10 μM applied apically, binary coculture BBB model, basolateral cells
  iridium uptake by U87MG cells: 108 ± 14 ng Ir/10^6 cells
U87MG cells; 10 μM, coculture
  accumulation in U87MG cells compared to hCMEC/D3 cells: more than 2 fold
